The text below walks through data of ChEMBL document CHEMBL3880399 (2004).

One may read the EC50 as the midpoint of the concentration-response curve.

Activity calls are given as the source filed them. The calls are words filed in the database; no cut-off is given here.

The subject of assay [1] is Mus musculus. Put plainly: Reduction in d-amphetamine-induced hyperactivity in sc dosed mouse. In kind it is functional.
The test system of assay [2] is Rattus norvegicus. As to the kind of experiment: Antipsychotic activity in rat assessed as reduction in MK-801-induced locomotor behaviors at 1 mg/kg, ip. Type of assay: functional, organism-based.
Assay [3] concerns Homo sapiens. As to the kind of experiment: Potentiation of levadopa-induced improvements in parkinsonian symptoms in parkinsonian patient administered orally once daily for four weeks with dose escalating once each week (30 mg on week2, 70 mg on week3, 150 mg on week 4 and 300 mg on week 5) in placebo controlled study lasting for 5 weeks measured on first day of each dose escalation. In kind it is functional.

On to `O=C(CCCN1CCC(O)(c2ccc(Cl)cc2)CC1)c1ccc(F)cc1`, for which the Activity result in assay [1] is “Dose-dependent effect”.
As to `CN1CCN(C2=Nc3cc(Cl)ccc3Nc3ccccc32)CC1` [CLOZAPINE], the outcome in assay [2] was Active. In addition, in assay [3], the EC50 came out at 6.4 nM.
